Measurements from US20150045551A1, “FUSED AZOLE DERIVATIVE” (TAISHO PHARMACEUTICAL CO., LTD, priority 2012, published 2015).
Counter-ions that a name gives are not always drawn.

Target: T1, Human V1b receptor (Homo sapiens, UniProt P47901)
T1 sequence (P47901 1-424): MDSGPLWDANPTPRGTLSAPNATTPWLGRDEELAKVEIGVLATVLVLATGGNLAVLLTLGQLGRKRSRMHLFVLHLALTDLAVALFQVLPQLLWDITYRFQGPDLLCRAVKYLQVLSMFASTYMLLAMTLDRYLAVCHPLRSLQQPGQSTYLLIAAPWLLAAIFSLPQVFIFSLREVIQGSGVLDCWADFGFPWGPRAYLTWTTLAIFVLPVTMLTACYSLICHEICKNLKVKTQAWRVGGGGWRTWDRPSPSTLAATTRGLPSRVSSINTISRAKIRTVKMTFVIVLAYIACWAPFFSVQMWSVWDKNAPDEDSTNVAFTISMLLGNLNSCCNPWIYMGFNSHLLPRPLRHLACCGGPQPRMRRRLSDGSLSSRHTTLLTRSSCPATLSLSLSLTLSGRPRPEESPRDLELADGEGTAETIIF
Assay: Binding test for V1b receptor ([3H]AVP displacement, crude membrane preparation)
Design: expressed in transfected cells; host or cells: 293FT cells (transient expression)
Conditions: [3H]AVP 0.4 to 1 nmol/L; membranes of 293FT cells transiently expressing human V1b receptor; room temperature, 60 minutes
Procedure: Human V1b receptor was transiently expressed in 293FT cells, which were then recovered and homogenated in a 15 mmol/L tris-hydrochloric acid buffer (pH 7.4 and containing 2 mmol/L magnesium chloride, 0.3 mmol/L ethylenediaminetetracetic acid, and 1 mmol/L glycol ether diaminetetraacetic acid). The resulting homogenate was centrifuged at 50,000×g at 4 ° C. for 20 minutes. The precipitate was resuspended in a 75 mmol/L tris-hydrochloric acid buffer (pH 7.4 and containing 12.5 mmol/L magnesium chloride, 0.3 mmol/L ethylenediaminetetracetic acid, 1 mmol/L glycol ether diaminetetraacetic acid, and 250 mmol/L sucrose) to give a crude membrane preparation, which was stored at −80° C. until the binding test was initiated. In the binding test, the crude membrane preparation was diluted with a 50 mmol/L tris-hydrochloric acid buffer (pH 7.4 and containing 10 mmol/L magnesium chloride and 0.1% bovine serum albumin) and mixed with each test compound and [^3H]AVP (final concentration: 0.4 to 1 nmol/L), followed by incubation at room temperature for 60 minutes. The test compound was serially diluted with DMSO so that it would have final concentrations of 0.01 nmol/L to […] at the time of mixing. After the incubation, the mixture was suction filtered through a GF/C filter that was preliminarily impregnated with 0.3% polyethyleneimine. The GF/C filter was dried and after adding a scintillator, the residual radioactivity on the filter was measured using TopCount (PerkinElmer Inc.). The radioactivity in the presence of unlabeled AVP at 10 μmol/L was defined as 0%, and the radioactivity in the absence of unlabeled AVP was defined as 100%. A dose-response curve was plotted from radioactivities in the presence of a test compound at various concentrations, and the 50% inhibitory concentration (IC50 value) of the test compound was calculated.

IC50 | SMILES
6.4 nM | CC(C)NC(=O)Cn1c(-c2cccc(Cl)c2)cc2cc(OCCCN3CCOCC3)ccc21 [Example B-2, 2-{2-(3-chlorophenyl)-5-[3-(morpholin-4-yl)propoxy]-1H-indol-1-yl}-N-isopropyl acetamide]
10.4 nM | CC(C)NC(=O)Cn1c(-c2cccc(Cl)c2)cc2cc(OC3CCN(C4CC4)CC3)ccc21 [Example B-3, 2-{2-(3-chlorophenyl)-5-[(1-cyclopropylpiperidin-4-yl)oxy]-1H-indol-1-yl}-N-isopropyl acetamide]
18.4 nM | CC(C)NC(=O)Cn1c(-c2cccc(Cl)c2)cc2cc(OCCCN3CCC(O)CC3)ccc21 [Example B-6, 2-{2-(3-chlorophenyl)-5-[3-(4-hydroxypiperidin-1-yl)propoxy]-1H-indol-1-yl}-N-isopropyl acetamide]
73.4 nM | CC(C)NC(=O)Cn1c(-c2cccc(Cl)c2)cc2cc(OCCCN3CCCC(O)C3)ccc21 (stereo not drawn) [Example B-7, 2-{2-(3-chlorophenyl)-5-[3-(3-hydroxypiperidin-1-yl)propoxy]-1H-indol-1-yl}-N-isopropyl acetamide]
52.3 nM | CC(C)NC(=O)Cn1c(-c2cccc(Cl)c2)cc2cc(OCCCN3CCC(O)C3)ccc21 (stereo not drawn) [Example B-8, 2-{2-(3-chlorophenyl)-5-[3-(3-hydroxypyrrolidin-1-yl)propoxy]-1H-indol-1-yl}-N-isopropyl acetamide]
20.2 nM | CC(C)NC(=O)Cn1c(-c2cccc(Cl)c2)cc2cc(OCCCN3CCC4(CC3)COC4)ccc21 [Example B-10, 2-{2-(3-chlorophenyl)-5-[3-(2-oxa-7-azaspiro[3.5]non-7-yl)propoxy]-1H-indol-1-yl}-N-isopropyl acetamide]
52.1 nM | COc1cc(-c2cc3cc(OCCCN4CCCCC4)ccc3n2CC(=O)NC(C)C)ccc1F [Example B-11, 2-{2-(4-fluoro-3-methoxyphenyl)-5-[3-(piperidin-1-yl)propoxy]-1H-indol-1-yl}-N-isopropyl acetamide]
45.3 nM | COc1cc(-c2cc3cc(OCCCN4CCC(O)CC4)ccc3n2CC(=O)NC(C)C)ccc1F [Example B-12, 2-{2-(4-fluoro-3-methoxyphenyl)-5-[3-(4-hydroxypiperidin-1-yl)propoxy]-1H-indol-1-yl}-N-isopropyl acetamide]
87.1 nM | COc1cc(-c2cc3cc(OCCCN4CCCC(O)C4)ccc3n2CC(=O)NC(C)C)ccc1F (stereo not drawn) [Example B-13, 2-{2-(4-fluoro-3-methoxyphenyl)-5-[3-(3-hydroxypiperidin-1-yl)propoxy]-1H-indol-1-yl}-N-isopropyl acetamide]
87.2 nM | COc1cc(-c2cc3cc(OCCCN4CCC(O)C4)ccc3n2CC(=O)NC(C)C)ccc1F (stereo not drawn) [Example B-14, 2-{2-(4-fluoro-3-methoxyphenyl)-5-[3-(3-hydroxypyrrolidin-1-yl)propoxy]-1H-indol-1-yl}-N-isopropyl acetamide]
8.3 nM | COc1cc(-c2cc3cc(OCCCN4CC5(COC5)C4)ccc3n2CC(=O)NC(C)C)ccc1F [Example B-15, 2-{2-(4-fluoro-3-methoxyphenyl)-5-[3-(2-oxa-6-azaspiro[3.3]hept-6-yl)propoxy]-1H-indol-1-yl}-N-isopropyl acetamide]

The remaining lines, values behind:

SMILES | IC50
CC(C)NC(=O)Cn1c(-c2cccc(Cl)c2)nc2cc(OCCCN3CCOCC3)ccc21 [Example A-2, 2-{2-(3-chlorophenyl)-5-[3-(morpholin-4-yl)propoxy]-1H-benzimidazol-1-yl}-N-isopropyl acetamide] | 14.1 nM
CC(C)NC(=O)Cn1c(-c2cccc(Cl)c2)nc2cc(OCCCN3CC4(COC4)C3)ccc21 [Example A-3, 2-{2-(3-chlorophenyl)-5-[3-(2-oxa-6-azaspiro[3.3]hept-6-yl)propoxy]-1H-benzimidazol-1-yl}-N-isopropyl acetamide] | 8.3 nM
CC(C)NC(=O)Cn1c(-c2cccc(Cl)c2)nc2cc(OCCCN3[C@@H]4CC[C@H]3COC4)ccc21 [Example A-4, 2-[2-(3-chlorophenyl)-5-{3-[(1R,5S)-3-oxa-8-azabicyclo[3.2.1]oct-8-yl]propoxy}-1H-benzimidazol-1-yl]-N-isopropyl acetamide] | 5 nM
COc1cc(-c2nc3cc(OCCCN4CC5(COC5)C4)ccc3n2CC(=O)NC(C)C)ccc1F [Example A-7, 2-{2-(4-fluoro-3-methoxyphenyl)-5-[3-(2-oxa-6-azaspiro[3.3]hept-6-yl)propoxy]-1H-benzimidazol-1-yl}-N-isopropyl acetamide] | 4.8 nM
COc1cc(-c2nc3cc(OCCCN4[C@@H]5CC[C@H]4COC5)ccc3n2CC(=O)NC(C)C)ccc1F [Example A-8, 2-[2-(4-fluoro-3-methoxyphenyl)-5-{3-[(1R,5S)-3-oxa-8-azabicyclo[3.2.1]oct-8-yl]propoxy}-1H-benzimidazol-1-yl]-N-isopropyl acetamide] | 2.5 nM
COc1cc(-c2nc3ccc(-c4cc(Cl)cc(CN(C)C)c4)cc3n2CC(=O)NC(C)C)ccc1F [Example A-10, 2-[6-{3-chloro-5-[(dimethylamino)methyl]phenyl}-2-(4-fluoro-3-methoxyphenyl)-1H-benzimidazol-1-yl]-N-isopropyl acetamide] | 141 nM
CC(C)NC(=O)Cn1c(-c2ccc(F)c(Cl)c2)nc2cc(OCCCN3CCCCC3)ccc21 [Example A-12, 2-{2-(3-chloro-4-fluorophenyl)-5-[3-(piperidin-1-yl)propoxy]-1H-benzimidazol-1-yl}-N-isopropyl acetamide hydrochloride] | 7.6 nM
CC(C)NC(=O)Cn1c(-c2ccc(F)c(Cl)c2)nc2cc(OCCCN3CC4(COC4)C3)ccc21 [Example A-15, 2-{2-(3-chloro-4-fluorophenyl)-5-[3-(2-oxa-6-azaspiro[3.3]hept-6-yl)propoxy]-1H-benzimidazol-1-yl}-N-isopropyl acetamide] | 3.8 nM
CC(C)NC(=O)Cn1c(-c2ccc(F)c(Cl)c2)nc2cc(OCCCN3[C@@H]4CC[C@H]3COC4)ccc21 [Example A-16, 2-[2-(3-chloro-4-fluorophenyl)-5-{3-[(1R,5S)-3-oxa-8-azabicyclo[3.2.1]oct-8-yl]propoxy}-1H-benzimidazol-1-yl]-N-isopropyl acetamide] | 1.7 nM
CC(C)NC(=O)Cn1c(-c2ccc(F)c(Cl)c2)nc2cc(OCCCCN3CCCCC3)ccc21 [Example A-17, 2-{2-(3-chloro-4-fluorophenyl)-5-[4-(piperidin-1-yl)butoxy]-1H-benzimidazol-1-yl}-N-isopropyl acetamide] | 176 nM
COc1cccc(-c2nc3cc(OCCCN4CCOCC4)ccc3n2CC(=O)NC(C)C)n1 [Example A-18, N-isopropyl-2-{2-(6-methoxypyridin-2-yl)-5-[3-(morpholin-4-yl)propoxy]-1H-benzimidazol-1-yl}acetamide] | 83.6 nM
COc1cc(-c2nc3cc(N4CCCN(C)CC4)ccc3n2CC(=O)NC(C)(C)C)ccc1F [Example A-19, N-tert-butyl-2-[2-(4-fluoro-3-methoxyphenyl)-5-(4-methyl-1,4-diazepan-1-yl)-1H-benzimidazol-1-yl]acetamide] | 3.4 nM
COc1cc(-c2nc3cc(N4CCCN(C(C)C)CC4)ccc3n2CC(=O)NC(C)(C)C)ccc1F [Example A-20, N-tert-butyl-2-[2-(4-fluoro-3-methoxyphenyl)-5-(4-isopropyl-1,4-diazepan-1-yl)-1H-benzimidazol-1-yl]acetamide] | 8.6 nM
COc1cc(-c2nc3cc(N4CCC(N5CCCC5)CC4)ccc3n2CC(=O)NC(C)(C)C)ccc1F [Example A-21, N-tert-butyl-2-{2-(4-fluoro-3-methoxyphenyl)-5-[4-(pyrrolidin-1-yl)piperidin-1-yl]-1H-benzimidazol-1-yl}acetamide] | 1.1 nM
CC(C)NC(=O)Cn1c(-c2ccc(F)c(Cl)c2)nc2cc(N3CCCN(C)CC3)ccc21 [Example A-22, 2-[2-(3-chloro-4-fluorophenyl)-5-(4-methyl-1,4-diazepan-1-yl)-1H-benzimidazol-1-yl]-N-isopropyl acetamide] | 15.4 nM
CN1CCCN(c2ccc3c(c2)nc(-c2ccc(F)c(Cl)c2)n3CC(=O)NC(C)(C)C)CC1 [Example A-23, N-tert-butyl-2-[2-(3-chloro-4-fluorophenyl)-5-(4-methyl-1,4-diazepan-1-yl)-1H-benzimidazol-1-yl]acetamide] | 3.1 nM
